Experimental data taken from US11136370B2, “Compositions and methods for thrombin generation assay” (The Scripps Research Institute, priority 2016, dated 2021).
“Also recorded” adds a separate entry of the source.

How the values were obtained:
[1] = target: T1, pre-activated FXa either free or in a NAPc2-stabilized complex with TF-iFVIIa (Homo sapiens, UniProt P00742); assay: FVIII activation (FVIIIa generation, WB) by pre-activated FXa, free or in NAPc2-stabilized complex; type: biochemical; conditions: therapeutic concentrations, 50-450 nM
T1 construct: purchased Haematologic Technologies (FXa); Siemens Healthcare Diagnostics (rTF, Dade Innovin)
Method: (D) WB analysis (representing 2) of FVIIIa generation by pre-activated or de novo generated FXa and its inhibition by increasing concentrations of AT/penta. Reactions (37° C.) initiated by 200 pM FXa or 20 pM FVIIa with 50 nM FX into mixtures of 400 pM TF, 0.7 nM FVIII, 200 nM lepirudin without (top, incubation 60 s) or with (bottom, incubation 120 s) 3 nM FV/50 nM FIX. (E) Quantification (relative to non-inhibited control) of FVIIIa generated as in D (bottom) calibrated with known FVIIIa quantities (n=6-8 by nascent FXa, 4-6 by pre-formed FXa). […]
Coagulation reaction products were separated by reducing sodium dodecyl sulfate-polyacrylamide gel electrophoresis (SDS-PAGE), except for the analysis of FVIII activation in the presence of anti-FVIIa MoAbs that was performed under non-reducing conditions. […] Quantitative infrared detection of FVIIIa and FVa was obtained with IRDye 800CW-conjugated anti-mouse IgG or streptavidin followed by analysis with the Odyssey infrared imager (Li-COR, Lincoln, Nebr.). Concentrations were calculated by calibration with known quantities of FVIIIa and FVa. […]

nascent TF-FVIIa-FXa = target: T2, nascent TF-FVIIa-FXa (Homo sapiens, UniProt P00742); assay: FVIII activation (FVIIIa generation, WB) by nascent FXa generated by TF-FVIIa; type: biochemical; conditions: for effect on FVIII activation by nascent FXa generated by TF-FVIIa: therapeutic concentrations, 50-450 nM
T2 construct: purchased Haematologic Technologies (FX); Siemens Healthcare Diagnostics (rTF); FVIIa made in house
Method: Thrombin was quantified with a fluorogenic substrate for calculation of % inhibition. […] Reactions were initiated by 100 pM FXa with 50 pM rTF as the phospholipid surface (top); or the preformed complex of 50 pM TF, 100 pM iFVIIa, 100 pM FXa, 5 nM NAPc2 (middle); or 50 pM TF/200 pM FVIIa/135 nM FX (bottom) in mixtures of 0.7 nM FVIII, 3 nM FV, 200 nM lepirudin, 10 nM TFPI, and 2.5 mM CaCl2 incubated for 120 s at 37° C. […] (n=3-4). […] Endogenous thrombin potential (ETP, right) was calculated from the area under the TG curve (n=2). Results in (E) and (F) are shown as 25th-75th percentile bars with min to max whiskers or min to max bars (when n≤3) with a line at the median. Differences were evaluated with the ANOVA/Tukey test (performed after log 10 transformation of the data shown in E); *P<0.05, ***P<0.001.
(A) WB analysis (representing 3) of the effect of anti-FVIIa MoAbs 3G12 and 12C7 (20 μg/ml) on TF-dependent FVIIIa generation after 120 s in reactions including 50 pM TF, 200 pM FVIIa, 135 nM FX, 3.5 nM FVIII, 3 nM FV and 200 nM lepirudin; quantification as in FIG. 4E. […] Reactions contained 50 pM TF, 200 pM FVIIa, 0.7 nM FVIII, 3 nM FV, 135 nM FX, 10 nM TFPI, 200 nM lepirudin and 2.5 mM CaCl2; anti-FVIIa MoAbs or control mouse IgG were at 20 μg/ml; the function-blocking anti-FVIII MoAb 8D4 was at 8 μg/ml. (C) Effect of anti-FVIIa MoAbs 3G12 and 12C7 (20 μg/ml), without or with anti-FVIII MoAb 8D4 (8 μg/ml) or anti-FXI MoAb O1A6 (20 μg/ml), on TG in normal PRP. […] Results in (B) and (D) are shown as 25th-75th percentile bars with min to max whiskers or min to max bars (when n≤3) with a line at the median. Differences were evaluated by a two-tailed t-test with Welch correction (A) or the ANOVA/Tukey test (B and D). *P<0.05, **P<0.01, ***P<0.001.
Coagulation reaction products were separated by reducing sodium dodecyl sulfate-polyacrylamide gel electrophoresis (SDS-PAGE), except for the analysis of FVIII activation in the presence of anti-FVIIa MoAbs that was performed under non-reducing conditions. After transfer to a polyvinylidene fluoride membrane, blots were probed with MoAb C5, biotinylated or not (0.5 μg/ml), for FVIII activation; MoAb AHV-5146 (1 μg/ml) for FV. Quantitative infrared detection of FVIIIa and FVa was obtained with IRDye 800CW-conjugated anti-mouse IgG or streptavidin followed by analysis with the Odyssey infrared imager (Li-COR, Lincoln, Nebr.). Concentrations were calculated by calibration with known quantities of FVIIIa and FVa.
The synthetic reaction mixtures comprised 0.7 nM FVIII, 3 nM FV, 135 nM FX, 104 prothrombin in 50 mM Tris-buffered saline, pH 7.4, with 0.1% BSA. […] Reactions to prevent thrombin effects were carried out in the presence of 200 nM lepirudin or 4 μM DAPA. Reactions were initiated by adding 0.6 to 400 pM rTF, 200 to 500 pM FVIIa or/and 10 nM FIXa, followed by 2.5 mM CaCl2 and incubation at 37° C. for the indicated times. 10 mM EDTA was then added to quench the reaction. Generation of FXa, FIIa and thrombin were evaluated by measuring amidolytic activity toward the chromogenic substrate S-2765 (180 μM; N-α-benzyloxycarbonyl-D-arginyl-L-glycyl-L-arginine-p-nitroaniline; DiaPharma, West Chester, Ohio) and the fluorogenic substrate Z-Gly-Gly-Arg-AMC (360 μM) respectively.

FXa V17M mutant = target: T3, FXa V17M mutant (Homo sapiens, UniProt P00742, V236M); assay: FVIIIa generation by FXa V17M in stable complex with TF-iFVIIa-NAPc2; type: biochemical; conditions: up to 5 nM rivaroxaban
T3 construct: TF-associated FVIIa has converted FX into FXa active protease

immobilized rTF = assay: Blood perfusion over immobilized rTF, volume of platelet aggregates and fibrin; type: cell-based, human
Method: Glass coverslips treated with 0.2 mg/ml poly-L-lysine for 6 h at 37° C. were coated with rTF for 18-20 hours at 37° C. or 2.5 mg/ml acid-insoluble type I collagen for 2 hours at 22-25° C. Then they were rinsed with pH 7.4 buffered-saline, assembled in a rectangular flow chamber with a 125 μm-high silicon gasket and positioned on a confocal microscope stage for analysis. Venous blood for testing was collected into final 10.9 mM trisodium citrate using a plastic syringe for normal volunteers or Vacutainer tubes (Becton Dickinson, Buccinasco, Milan) for patients and controls. Before perfusion at a flow rate yielding an initial wall shear rate of 300 s^−1 maintained with a syringe pump (Harvard Apparatus, Holliston, Mass.), CaCl2 was added to obtain 1.29 mM Ca^2+. In the blood of patients—potentially hypercoagulable—and related controls, lepirudin (50 nM) was also added to neutralize thrombin possibly generated before testing. […] For experiments with WT and mutant FVIIa, cells from group O citrated blood, containing 50 μg/ml CTI and 10 U/ml (ADPase activity) apyrase, were washed free of plasma by sequential centrifugation steps at 1500 g for 7 min. After the first, plasma was replaced with an equal volume of calcium-free Tyrode buffer, pH 6.5, with 5 U/ml apyrase; then with buffer and 1.25 U/ml apyrase; and finally with human FVII deficient plasma (George King Bio-Medical, Overland Park, Kans.) up to the original blood volume. Cell count results in reconstituted and native blood were within 90%. Experiments in Milan (Italy) were performed with a Leica TCS SP5 microscope and HCX PL APO 63x/1.40 NA oil immersion objective (Leica Microsystems GmbH, Wetzlar, Germany); in La Jolla (California) with a Zeiss Axiovert 135M/LSM 410 and Plan-Apochromat 40x/1.40 NA oil immersion objective (Carl Zeiss AG, Oberkochen, Germany).
Platelets adhering and aggregating onto the surface were visualized by adding quinacrine-HCl (mepacrine; 10 μg/ml; Sigma-Aldrich) to blood. Deposited fibrin was visualized with Alexa Fluor 546-labeled (Invitrogen) mouse monoclonal IgG (50 μg/ml) specific for the B chain of mouse and human fibrin (HB-8545; ATCC). Blood was perfused for 3-5 min at 37° C. with a syringe pump (Harvard Apparatus Inc.) at a flow rate yielding an initial (in the unobstructed flow path) wall shear rate of 300 s^−1. This was followed by buffer (DMEM) for 2 minutes to facilitate fibrin quantification by confocal z section analysis using a Zeiss Axiovert 135M/LSM 410 microscope (Carl Zeiss) and Plan-Apochromat×63/1.40 NA oil immersion objective. Image analysis was performed with NIH ImageJ64. Deposited fibrin volume was measured from confocal sections collected at 4 preset positions in the flow chamber. Total volume of deposited platelets and fibrin was calculated from the sum of the respective area coverage per section multiplied by the z interval (2 μm). All studies involving human subjects were conducted following institutionally approved protocols.
TF-coated glass coverslips were perfused with venous blood at a wall shear rate of 300 s^−1. A Zeiss Axiovert 135M/LSM 410 and Plan-Apochromat 40x/1.40 NA oil immersion objective (Carl Zeiss AG, Oberkochen, Germany) was used to visualize platelets/leukocytes and fibrin stained with mepacrine and a specific anti-body, respectively. Image analysis to calculate volumes was performed as described herein.
Glass coverslips treated with 0.2 mg/ml poly-L-lysine for 6 h at 37° C. were coated with rTF for 18-20 hours at 37° C., rinsed with buffered-saline and assembled in a rectangular flow chamber with a 125 μm-high silicon gasket. Venous blood was collected into final 10.9 mM trisodium citrate using a plastic syringe. CaCl2 was added to obtain 1.29 mM Ca^2+ before perfusion at a wall shear rate of 300 s-1 maintained with a syringe pump (Harvard Apparatus, Holliston, Mass.). […]

T2 sequence (P00742 41-179 limits assumed): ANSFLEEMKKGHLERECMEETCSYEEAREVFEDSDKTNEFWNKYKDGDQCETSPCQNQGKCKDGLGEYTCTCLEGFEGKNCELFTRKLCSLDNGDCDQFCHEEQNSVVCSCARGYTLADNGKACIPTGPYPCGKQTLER
T2 sequence (P00742 235-488 limits assumed): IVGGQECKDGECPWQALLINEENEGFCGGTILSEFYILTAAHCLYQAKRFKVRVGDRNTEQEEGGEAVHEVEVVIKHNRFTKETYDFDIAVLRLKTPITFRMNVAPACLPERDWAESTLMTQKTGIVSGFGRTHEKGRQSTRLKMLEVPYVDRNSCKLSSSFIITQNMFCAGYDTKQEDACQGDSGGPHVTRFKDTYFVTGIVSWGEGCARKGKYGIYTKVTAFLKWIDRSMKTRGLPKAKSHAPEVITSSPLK
T1 sequence (P00742 41-179 limits assumed): as the sequence (P00742 41-179 limits assumed) above
T1 sequence (P00742 235-488 limits assumed): as the sequence (P00742 235-488 limits assumed) above
T3 sequence (P00742 41-179): as the sequence (P00742 41-179 limits assumed) above
T3 sequence (P00742 235-488 V236M): as the sequence (P00742 235-488 limits assumed) above, with V2M counted along it

## O=C(NC[C@H]1CN(c2ccc(N3CCOCC3=O)cc2)C(=O)O1)c1ccc(Cl)s1 [Rivaroxaban]
[1]
  inhibition of FVIII activation by pre-activated FXa: ~90%
Nascent TF-FVIIa-FXa; 500 nM rivaroxaban
  FVIIIa generation: sustained
Nascent TF-FVIIa-FXa; TFPI and rivaroxaban combined, rivaroxaban as high as 450 nM, lepirudin present
  FVIIIa generation, coagulation initiated by FVIIa: substantial FVIIIa generation
Nascent TF-FVIIa-FXa
  effect on FVIII activation by nascent FXa generated by TF-FVIIa: only marginally affected
Nascent TF-FVIIa-FXa; listed as rivaroxaban
  effect on FVIII activation by nascent FXa generated by TF-FVIIa: minimally affected; also recorded: only marginally reduced
FXa V17M mutant
  effect on FVIIIa generation by FXa V17M: insensitive
Immobilized rTF; blood of treated patients, high density TF surface
  fibrin deposition: as low as in warfarin treated patients
Immobilized rTF; blood of treated patients, higher rTF coating concentration, 300 s^-1, 5 min
  volume of deposited fibrin: significantly greater; also recorded: fibrin formation in the normal range
Immobilized rTF; blood of treated patients, lower rTF coating concentration, 300 s^-1, 5 min
  volume of deposited fibrin vs untreated controls: markedly smaller
Immobilized rTF; blood of treated patients, rTF coating 20 and 40 pM
  volume of platelet aggregates vs controls: non significantly different from controls
Immobilized rTF; rivaroxaban added to normal blood in vitro at the concentration measured in treated patients
  fibrin volume: reduced fibrin volume partially
